Source: the CheMixHub viscosity set

Assay: xn = mol fraction of the nth substance listed

O=C(O)C(Cl)(Cl)Cl + Oc1ccccc1
323.15 K, 101 kPa
Details | viscosity [mPa·s]
x2 = 0.1005 | 5.083
x2 = 0.1834 | 5.115
x2 = 0.245 | 5.126
x2 = 0.3305 | 5.085
x2 = 0.4032 | 5.012
x2 = 0.5025 | 4.779
x2 = 0.5925 | 4.683
x2 = 0.6928 | 4.342
x2 = 0.76 | 4.127
x2 = 0.8544 | 3.811
x2 = 0.9117 | 3.569

[I-].[K+] + [2H]O[2H]
viscosity [mPa·s], 101 kPa
Details | x1 = 0.011 | x1 = 0.021 | x1 = 0.036 | x1 = 0.053 | x1 = 0.076 | x1 = 0.121
298.15 K | 1.036 | 0.97 | 0.942 | 0.936 | 0.972 | 1.098
308.15 K | 0.829 | 0.794 | 0.776 | 0.783 | 0.823 | 0.942
318.15 K | 0.692 | 0.667 | 0.662 | 0.68 | 0.715 | 0.827

CCCCN + c1ccccc1
viscosity [mPa·s], 101 kPa
Details | 303.15 K | 313.15 K
x1 = 0.009356 | 0.5633 | 0.4919
x1 = 0.01948 | 0.5628 | 0.4907
x1 = 0.02841 | 0.5622 | 0.4905
x1 = 0.03798 | 0.562 | 0.4893
x1 = 0.048 | 0.5618 | 0.4884
x1 = 0.0558 | 0.536 | –
x1 = 0.05882 | 0.5617 | 0.4876
x1 = 0.0669 | 0.5608 | 0.4869
x1 = 0.07642 | 0.5598 | 0.4861
x1 = 0.08586 | 0.5588 | 0.4852
x1 = 0.1165 | 0.516 | –
x1 = 0.2036 | 0.494 | –
x1 = 0.2875 | 0.479 | –
x1 = 0.382 | 0.465 | –
x1 = 0.5164 | 0.453 | –
x1 = 0.5676 | 0.451 | –
x1 = 0.6631 | 0.448 | –
x1 = 0.7656 | 0.447 | –
x1 = 0.8602 | 0.446 | –
x1 = 0.9278 | 0.444 | –
x2 = 0.0974 | 0.4454 | –
x2 = 0.1974 | 0.4466 | –
x2 = 0.5007 | 0.4542 | –
x2 = 0.6051 | 0.4738 | –
x2 = 0.7995 | 0.5056 | –
x2 = 0.9004 | 0.5322 | –

CC[N+](=O)[O-] + c1ccccc1
293.15 K, 101.33 kPa
Details | viscosity [mPa·s]
x1 = 0.0901 | 0.628
x1 = 0.1956 | 0.611
x1 = 0.2856 | 0.602
x1 = 0.3897 | 0.595
x1 = 0.4893 | 0.594
x1 = 0.5827 | 0.597
x1 = 0.6952 | 0.608
x1 = 0.7869 | 0.622
x1 = 0.879 | 0.644
